The values below come from PMC4332545 (ChemMedChem, 2009).

Experiment [1] has as its system 6 Hz (32 mA) corneal stimulation seizures in CF-1 mice. Description: 6 Hz partial psychomotor seizure model. The settings on record: mouse 6 Hz, 30 min after dosing. It is filed as in vivo.
In experiment [2] the test system is Frings mouse model of epilepsy. Particulars: in vivo; cited from earlier work.

As for `CC[C@H](C)[C@H](NC(=O)[C@H](Cc1ccc(O)cc1)NC(=O)[C@@H]1CCCN1C(=O)[C@H](CCCNC(=N)N)NC(=O)[C@@H](N)CCCNC(=N)N)C(=O)N[C@@H](CC(C)C)C(=O)O` [NT(8–13), H-RRPYIL-OH], the “Anticonvulsant Assay, icv ED50” value in experiment [1] is 0.0011 nmol.

In the case of ZSEEGGSNATKKPYIL [Contulakin-G], the “Anticonvulsant activity in the Frings mouse model” value in experiment [2] is recorded as “potent anticonvulsant activity”.
